Measured values as given in ChEMBL document CHEMBL5335778, “Bench-to-bedside: Innovation of small molecule anti-SARS-CoV-2 drugs in China” (Eur J Med Chem, 2023).

Columns and labels:
[1] = system: Respiratory syncytial virus; assay: Antiviral activity against Respiratory syncytial virus; assay type: functional, organism-based; conditions: human respiratory syncytial virus
SARS-CoV-2 [2] = assay: Antiviral activity against SARS-CoV-2 Omicron assessed as reduction of viral growth; assay type: functional, organism-based; conditions: Severe acute respiratory syndrome coronavirus 2, Omicron
SARS-CoV-2 [3] = assay: Antiviral activity against SARS-CoV-2 B.1.1.7 Alpha infected in human Calu-3 cells assessed as inhibition of viral infection preincubated for 1 hr followed by viral infection measured after 48 hrs by Hoechst 33342 staining based analysis; assay type: functional, organism-based; conditions: Severe acute respiratory syndrome coronavirus 2, B.1.1.7, Calu-3
SARS-CoV-2 [4] = assay: Antiviral activity against SARS-CoV-2 […] infected in human 293TA cells assessed as reduction of viral growth measured after 48 hrs by luciferase assay; assay type: functional, organism-based; conditions: Severe acute respiratory syndrome coronavirus 2, 293TA
SARS-CoV-2 [5] = assay: Antiviral activity against SARS-CoV-2 […] B.1.617.2 delta infected in human 293TA cells assessed as reduction of viral growth measured after 48 hrs by luciferase assay; assay type: functional, organism-based; conditions: Severe acute respiratory syndrome coronavirus 2, 293TA
Ebolavirus = assay: Antiviral activity against EBOV infected in human Huh-7 cells assessed as reduction in viral replication; assay type: functional, organism-based; conditions: Orthoebolavirus
[6] = Selectivity index, ratio of CC50 for cytotoxicity against human HEp-2 cells to IC50 for antiviral activity against RSV A2 infected in human HEp-2 cells
SARS-CoV [7] = assay: Antiviral activity against SARS-CoV infected in Vero E6 cells assessed as reduction in viral replication measured after 48 hrs by qRT-PCR assay; assay type: functional, organism-based; conditions: Severe acute respiratory syndrome-related coronavirus, Vero C1008, 48 h
[8] = system: Middle East respiratory syndrome-related coronavirus; assay: Antiviral activity against MERS-CoV infected in HAE cells; assay type: functional, organism-based
in vitro = conditions: monkey, Vero E6 cells
SARS-CoV-2 [9] = assay: microbe, parasite or virus in culture; conditions: Severe acute respiratory syndrome coronavirus 2, Vero C1008
[10] = biological target: Human immunodeficiency virus type 1 protease (Human immunodeficiency virus 1, UniProt Q72874); assay: Inhibition of HIV-1 protease
SARS-CoV-2 [11] = assay: Antiviral activity against SARS-CoV-2 infected in African green monkey Vero E6 cells expressing TMPRSS2 assessed as reduction in virus-induced cytopathic effect measured after 48 hrs by cellular ATP assay; assay type: functional, organism-based; conditions: Severe acute respiratory syndrome coronavirus 2, Vero C1008, 48 h
SARS-CoV [12] = assay: Antiviral activity against SARS-CoV-1 infected in African green monkey Vero E6 cells expressing TMPRSS2; assay type: functional, organism-based; conditions: Severe acute respiratory syndrome-related coronavirus, Vero C1008
[13] = Oral bioavailability in rat; assay type: ADME, organism-based; conditions: in vivo
[14] = system: Human immunodeficiency virus 1; assay: Antiviral activity against HIV-1 3B infected in human MT4 cells assessed as reduction in virus-induced cytopathic effect incubated for 5 days by MTT assay; assay type: functional, organism-based; conditions: Human immunodeficiency virus 1, 3B, MT4, 120 h
[15] = Cytotoxicity against human MT4 cells assessed as reduction in cell viability treated for 5 days by MTT assay; assay type: toxicity, cell-based; conditions: time 5 day
[16] = biological target: Replicase polyprotein 1ab (Severe acute respiratory syndrome coronavirus 2, UniProt P0DTD1); assay: Inhibition of N-terminal His6-tagged recombinant full length SARS-CoV-2 3CLpro expressed in Escherichia coli BL21(DE3) using MCA-AVLQSGFR-Lys(Dnp)-Lys-NH2 as fluorogenic substrate preincubated with compound for 10 mins followed by substrate addition by FRET assay
Replicase polyprotein 1a = Replicase polyprotein 1a (Severe acute respiratory syndrome-related coronavirus, UniProt P0C6U8); assay: Inhibition of SARS-CoV 3CLpro
SARS-CoV-2 [17] = assay: Antiviral activity against SARS-CoV-2 infected in Vero E6 cells assessed as reduction in viral replication; assay type: functional, organism-based; conditions: Severe acute respiratory syndrome coronavirus 2, Vero C1008
[18] = biological target: Hepatitis C virus NS5B RNA-dependent RNA polymerase (Hepatitis C virus, UniProt Q8JXU8); assay: Inhibition of Hepatitis C virus NS5B polymerase; set-up: species or system Hepacivirus hominis
[19] = biological target: Human immunodeficiency virus type 1 reverse transcriptase (Human immunodeficiency virus 1, UniProt Q72547); assay: Inhibition of wild type HIV-1 reverse transcriptase
[20] = system: Human immunodeficiency virus 2; assay: Antiviral activity against HIV-2 D194 infected in PBMC assessed as inhibition of viral growth; assay type: functional, organism-based; conditions: Human immunodeficiency virus 2, D194, PBMC

Sequence of Hepatitis C virus NS5B RNA-dependent RNA polymerase (Q8JXU8 whole entry): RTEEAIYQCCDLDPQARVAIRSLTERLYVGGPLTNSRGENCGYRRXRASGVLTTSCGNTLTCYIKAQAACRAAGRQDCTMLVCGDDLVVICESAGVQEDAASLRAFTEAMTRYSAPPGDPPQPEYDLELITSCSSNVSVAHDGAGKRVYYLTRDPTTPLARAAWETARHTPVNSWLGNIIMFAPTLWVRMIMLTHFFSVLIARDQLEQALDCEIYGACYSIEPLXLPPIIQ

N#C[C@@]1(c2ccc3c(N)ncnn23)O[C@H](COP(=O)(O)OP(=O)(O)OP(=O)(O)O)[C@@H](O)[C@H]1O [RDV-TP]
EC50 [1]: 13 nM

CC(C)(C)[C@H](NC(=O)C(F)(F)F)C(=O)N1C[C@H]2[C@@H]([C@H]1C(=O)N[C@H](C#N)C[C@@H]1CCNC1=O)C2(C)C
EC50 (SARS-CoV-2 [2]): 33 nM
EC50 (SARS-CoV-2 [3]): 820 nM
EC50 (SARS-CoV-2 [4]): 490 nM
EC50 (SARS-CoV-2 [5]): 780 nM

O=C(NCc1cccs1)[C@@H]1CN(C(=O)c2cccnc2)CCN1c1ccc(Cl)c(Cl)c1
EC50 (SARS-CoV-2 [2]): 33 nM

O=C[C@H](C[C@@H]1CCNC1=O)NC(=O)[C@H](CC1CCCCC1)NC(=O)c1cc2ccccc2[nH]1
EC50 (SARS-CoV-2 [2]): 33 nM
EC50 (SARS-CoV-2 [3]): 390 nM
EC50 (SARS-CoV-2 [4]): 280 nM
EC50 (SARS-CoV-2 [5]): 270 nM

O=C[C@H](C[C@@H]1CCNC1=O)NC(=O)[C@@H]1[C@H]2CCC[C@H]2CN1C(=O)CCc1cc(F)cc(F)c1
EC50 (SARS-CoV-2 [2]): 33 nM

CCC(CC)COC(=O)[C@H](C)N[P@](=O)(OC[C@H]1O[C@@](C#N)(c2ccc3c(N)ncnn23)[C@H](O)[C@@H]1O)Oc1ccccc1
EC50 (Ebolavirus): 12 nM
EC50 [1]: 21 nM
selectivity ratio [6]: 395
EC50 (SARS-CoV [7]): 69 nM
EC50 [8]: 25 nM
selectivity ratio (in vitro): > 100
EC50 (SARS-CoV-2 [9]): 770 nM

[2H][C@](C(=O)N[C@@H](C)c1ccc(F)cc1)(c1cccnc1)N(C(=O)C(C)=O)c1ccc2c(c1)oc1ccccc12
EC50 (SARS-CoV-2 [2]): 33 nM

[N-]=[N+]=N[C@]1(CO)O[C@@H](n2ccc(N)nc2=O)[C@H](O)[C@@H]1O [4'-AZIDOCYTIDINE]
IC50 [10]: 1280 nM

O=C1C=C(Nc2ccccc2C2CCNCC2)C2=NS(=O)(=O)c3cccc1c32
EC50 (SARS-CoV-2 [2]): 33 nM

Cn1cnc(Cn2c(=O)[nH]/c(=N\c3cc4cn(C)nc4cc3Cl)n(Cc3cc(F)c(F)cc3F)c2=O)n1
EC50 (SARS-CoV-2 [11]): 350 nM
EC50 (SARS-CoV [12]): 1900 nM

[2H]c1cc([C@]2(C#N)O[C@H](COC(=O)C(C)C)[C@@H](OC(=O)C(C)C)[C@H]2OC(=O)C(C)C)n2ncnc(N)c12
bioavailability [13]: 49.9%
EC50 [14]: 350 nM
CC50 at 120 h [15]: 280000 nM

O=C(OC[C@H]1O[C@@H](OC(=O)c2cc(O)c(O)c(OC(=O)c3cc(O)c(O)c(O)c3)c2)[C@H](OC(=O)c2cc(O)c(O)c(OC(=O)c3cc(O)c(O)c(O)c3)c2)[C@@H](OC(=O)c2cc(O)c(O)c(OC(=O)c3cc(O)c(O)c(O)c3)c2)[C@@H]1OC(=O)c1cc(O)c(O)c(OC(=O)c2cc(O)c(O)c(O)c2)c1)c1cc(O)c(O)c(OC(=O)c2cc(O)c(O)c(O)c2)c1 [TANNIC ACID]
EC50 [16]: 585 nM
EC50 (Replicase polyprotein 1a): 8310 nM
EC50 (SARS-CoV-2 [17]): 12900 nM

[N-]=[N+]=N[C@]1(CO)O[C@@H](n2ccc(N)nc2=O)[C@@H](O)[C@@H]1O
IC50 [18]: 1280 nM
EC50 [19]: 0.03 nM
EC50 [20]: 0.018 nM
IC50 [10]: 171 nM
